PubChem BioAssay (NCI)
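Values below derive from 48-hour exposures of cells grown in 96-well plates, with endpoints linearly interpolated between the two concentrations bracketing the appropriate inhibition level. The concentration for full growth arrest is given as TGI.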

How the values were obtained:
Assay in all cases: NCI-60 cell line screen, 48 h
RXF-631 renal = system: RXF-631 renal
MOLT-4 leukemia = system: MOLT-4 leukemia
KM20L2 colon = system: KM20L2 colon
HCT-15 colon = system: HCT-15 colon
ACHN renal = system: ACHN renal
XF 498 CNS = system: XF 498 CNS
NCI-H460 lung = system: NCI-H460 lung
K-562 leukemia = system: K-562 leukemia
SW-620 colon = system: SW-620 colon
SN12C renal = system: SN12C renal
DLD-1 colon = system: DLD-1 colon
M14 melanoma = system: M14 melanoma
SK-MEL-5 melanoma = system: SK-MEL-5 melanoma
SF-539 CNS = system: SF-539 CNS
NCI-H23 lung = system: NCI-H23 lung
LXFL 529 NSCLC = system: LXFL 529 NSCLC
SK-OV-3 ovarian = system: SK-OV-3 ovarian
HOP-18 NSCLC = system: HOP-18 NSCLC
COLO 205 colon = system: COLO 205 colon
SK-MEL-28 melanoma = system: SK-MEL-28 melanoma
HOP-92 NSCLC = system: HOP-92 NSCLC
RPMI-8226 leukemia = system: RPMI-8226 leukemia
DMS 114 small cell lung = system: DMS 114 small cell lung
SF-268 CNS = system: SF-268 CNS
CCRF-CEM leukemia = system: CCRF-CEM leukemia
TK-10 renal = system: TK-10 renal
DMS 273 small cell lung = system: DMS 273 small cell lung
EKVX NSCLC = system: EKVX NSCLC
NCI-H522 lung = system: NCI-H522 lung
A549 NSCLC = system: A549 NSCLC
HCT-116 colon = system: HCT-116 colon
LOX IMVI melanoma = system: LOX IMVI melanoma
A498 renal = system: A498 renal
UO-31 renal = system: UO-31 renal
RXF 393 renal = system: RXF 393 renal
HOP-62 NSCLC = system: HOP-62 NSCLC
HL-60(TB) leukemia = system: HL-60(TB) leukemia
OVCAR-8 ovarian = system: OVCAR-8 ovarian
U251 CNS = system: U251 CNS

Structure (SMILES): CCc1nc2ccccc2c(=O)n1/N=C(\N=Nc1ccc(Cl)cc1)c1ccc(N(C)C)cc1
- TGI (RXF-631 renal): > 100 µM
- TGI (MOLT-4 leukemia): 92.2 µM
- TGI (KM20L2 colon): 69.9 µM
- TGI (HCT-15 colon): > 100 µM
- TGI (ACHN renal): > 100 µM
- TGI (XF 498 CNS): 80.7 µM
- TGI (NCI-H460 lung): > 100 µM
- TGI (K-562 leukemia): 79.3 µM
- TGI (SW-620 colon): > 100 µM
- TGI (SN12C renal): > 100 µM
- TGI (DLD-1 colon): > 100 µM
- TGI (M14 melanoma): > 100 µM
- TGI (SK-MEL-5 melanoma): 64.6 µM
- TGI (SF-539 CNS): > 100 µM
- TGI (NCI-H23 lung): 92.4 µM
- TGI (LXFL 529 NSCLC): > 100 µM
- TGI (SK-OV-3 ovarian): 99.4 µM
- TGI (HOP-18 NSCLC): > 100 µM
- TGI (COLO 205 colon): 73.5 µM
- TGI (SK-MEL-28 melanoma): > 100 µM
- TGI (HOP-92 NSCLC): 59 µM
- TGI (RPMI-8226 leukemia): 80.7 µM
- TGI (DMS 114 small cell lung): 47 µM
- TGI (SF-268 CNS): > 100 µM
- TGI (CCRF-CEM leukemia): > 100 µM
- TGI (TK-10 renal): > 100 µM
- TGI (DMS 273 small cell lung): > 100 µM
- TGI (EKVX NSCLC): > 100 µM
- TGI (NCI-H522 lung): 66.9 µM
- TGI (A549 NSCLC): > 100 µM
- TGI (HCT-116 colon): 73.6 µM
- TGI (LOX IMVI melanoma): > 100 µM
- TGI (A498 renal): > 100 µM
- TGI (UO-31 renal): 60.1 µM
- TGI (RXF 393 renal): > 100 µM
- TGI (HOP-62 NSCLC): 50 µM
- TGI (HL-60(TB) leukemia): 51.6 µM
- TGI (OVCAR-8 ovarian): > 100 µM
- TGI (U251 CNS): > 100 µM
